The results in this text go back to patent US20120022070A1, “Heat Shock Protein 90 Inhibitors, Methods Of Preparing Same, And Methods For Their Use” (EMORY UNIVERSITY, priority 2008, published 2012).

For test [1], the system named is Her2 protein in MCF-7 breast cancer cells. Kind of test: Cell-based Her2 degradation assay by Western Blot. The following applies: Homo sapiens. The text has this: Addition of Hsp90 inhibitors to cancer cells induces the proteasomal degradation of a subset of proteins involved in signal transduction such as Raf1 kinase, Akt and certain transmembrane tyrosine kinases such as Her2. Thus, Her2 degradation in cells is a functional read-out of Hsp90 inhibition. Correlation between Hsp90 binding and Her2 degradation in cancer cells is indicative of a selective biological effect in these cells via Hsp90.
A Western blot-based assay was used to measure the cellular level of Her2 protein in MCF-7 breast cancer cell lysates collected after 24 hours of compound treatment. […] Then 2×10^5 cells were seeded in 24 well plates in 500 μl PRMI1640 medium and allowed to attach overnight. The compounds were dissolved in DMSO, added to the wells, and incubated for 24 hours. The cells were washed using ice-cold phosphate-buffered saline (PBS) and lysed in 1% NP40 lysis buffer (10 mM HEPES, pH 7.4, 150 mM NaCl, 1% Nonident P-40, 5 mM Pyrophosphate, 5 mM NaF, 2 mM Orthovanadate, 10 ug/ml Aprotinin, 10 ug/ml Leupeptin, 1 mM PMSF). After boiling with 6×SDS sample buffer, the cell lysates were separated by SDS-PAGE and transferred to nitrocellulose membrane. The membranes were blocked with 5% milk in tris-buffered saline buffer.

The test system of test [2] is tumor specific Hsp90 (NCI-N417 cell lysate). Kind of test: Hsp90 binding FP competition assay. Conditions: Table 1, GM-cy3B 5 nM. The arrangement: species or system human. The text has this: There are several assays that have been developed to identify novel Hsp90 inhibitors based on the interaction of small molecules with recombinant Hsp90 protein, either yeast or human. To measure a therapeutically significant state of Hsp90, an FP assay that uses human cancer cell lysates instead of recombinant protein (Du, Moulick et al. J. Biomol. Screen, 2007, 12, 915-24) was utilized. It probes the interaction of small molecules with tumor-specific Hsp90 and may therefore lead to inhibitors that are not only selective for cancer cells but also specific for a particular malignancy.
The dose-response effect of the compounds was tested in Hsp90 binding FP competition assays to obtain the IC50 of the compounds. The Hsp90 FP competition assay was performed in 384-well black plate using the small-cell lung carcinoma (SCLC) cell line NCI-N417 as a source of tumor specific Hsp90 and the Cy3B-labeled geldanamycin (GM-cy3B) as the FP ligand. The compound was dissolved in DMSO and added at several concentrations to the reaction buffer containing both GM-cy3B (5 nM) and NCI-N417 cell lysate (1 μg/well) in a final volume of 50 μL. Free GM-cy3B (5 nM) and bound GM-cy3B with NCI-N417 cell lysate (5 nM GM-cy3B and 1 μg/well of NCI-N417 cell lysate) were included as controls in each plate. After incubating at room temperature for 2 to 16 hours, the polarization values were measured and expressed as millipolarization (mP) units using Analyst HT plate reader (Molecular Devices). The competitive efficiency of the compounds were expressed as a percentage of control and calculated according to the following equation:
% of control=((mPc−mPf)/(mPb−mPf))×100
where mPc is the recorded mP from compound wells, mPf is the average recorded mP from GM-cy3B-only wells, and mPb is the average recorded mP from wells containing both GM-cy3B and NCI-N417 lysate. IC50 values were determined using a nonlinear regression analysis as implemented in Prism 4.0 (Graphpad Software).

Test [3] relates to SKBR3 breast cancer cells. The experiment in a line: Cancer cell growth inhibition assay (CellTiter-Blue). In kind it is cell-based. Conditions: Homo sapiens, SK-BR-3, Table 2, 96 hours. As for the experimental part: The effects of the compounds on cancer cell growth were determined using the CellTiter-Blue cell viability assay (Promega). CellTiter-Blue® Cell Viability is based on the ability of living cells to convert a redox dye (resazurin) into a fluorescent end product (resorufin).
The SKBR3 breast cancer cells were plated in 384-well microtiter plates (Costar) and allowed to attach overnight. After treatment with either compounds or vehicle (DMSO) for 96 hours, the cells were measured for their viability by CellTiter-Blue. Briefly, 10 μl of CelTiter-Blue were added to each well in 384-well plates and incubated at 37° C. for 4 hours. The fluorescence intensity (FI) was measured using the Analyst HT plate reader (Molecular Devices) with an excitation at 545 nm and emission at 595 nm. The IC50 was calculated as the compound concentration that inhibits cell viability by 50% compared with vehicle control wells. The IC50 values were determined as described above.
Background: Resazurin is reduced to fluorescent resorufin, in cell work by metabolically active cells.

The mark [4] stands for this setting: MCF7, Table 1, MCF-7 cells, 24 hours of compound treatment, read-out: Her2 degradation WB IC50.
Setting [5] is: MCF7, 24 h, read-out: Her2 degradation WB IC50.

Read-outs that look alike come from different tables or passages of the source.

A word on the IC50: it is the concentration at which inhibition is half-maximal. Regarding `O=C1C=C(Nc2ccccc2)c2ncccc2C1=O` [Compound 1], the IC50 in test [1] (setting [4]) was around 2.5 µM.
On the same count and under the same terms, under `O=C1C(=O)c2cccnc2C(NC2CC3CCC2C3)=C1Cl` (stereo not shown) [Compound 2] stands around 2.5 µM; under `O=C1C(=O)c2cccnc2C(NCc2ccccc2)=C1Cl` [Compound 3], around 2.5 µM; under `NC1=CC(=O)C(=O)c2cccnc21` [Compound 4], above 20 µM.
The same measure, in the same setting: in the case of `CN(C)C1=C(Cl)C(=O)C(=O)c2cccnc21` [Compound 5] it was above 20 µM; in that of `CCN(CC)C1=C(Cl)C(=O)C(=O)c2cccnc21` [Compound 6], above 20 µM.
Turning to `N#CCCCCNC1=CC(=O)C(=O)c2cccnc21` [Compound 10], the IC50 in test [1] (setting [4]) was around 10 µM.
Still for that read-out and setting: in the case of `CC(N)CCCNC1=CC(=O)C(=O)c2cccnc21` (stereo not shown) [Compound 11] it was 2.5 to 5 µM.
`Cc1ccnc(NC2=CC(=O)C(=O)c3ccccc32)c1` [Compound 12]: the figures for the half-inhibitory concentration (IC50) in test [2] and in test [1] (setting [4]) were below 0.39 µM and around 10 µM, respectively.
As to `Cc1ccc(NC2=CC(=O)C(=O)c3ccccc32)c(C)c1` [Compound 13], the values for the IC50 in test [2] and in test [1] (setting [5]) were 1.85 µM and below 5 µM, respectively.
Turning to `O=C1C=C(Nc2ncccn2)c2ccccc2C1=O` [Compound 14], the IC50 in test [2] is 0.45 µM; in test [1] (setting [4]), 1 to 10 µM.
Consider `Cc1ccc(NC2=CC(=O)C(=O)c3ccccc32)cc1` [Compound 15], for which the IC50 was 0.96 µM in test [2] and around 10 µM in test [1] (setting [5]).
In the case of `O=C1C=C(Nc2cccnc2)c2ccccc2C1=O` [Compound 16], the IC50 in test [2] is 0.67 µM; in test [1] (setting [4]) it was around 10 µM.
The like results for `O=C1C=C(NCCc2ccccc2)c2ccccc2C1=O` [Compound 17] were, in that order, 4 µM and around 10 µM.
For `CN(C1=CC(=O)C(=O)c2ccccc21)c1ccccc1` [Compound 18], the 50% inhibitory concentration (IC50) was 0.39 µM in test [2] and around 10 µM in test [1] (setting [5]).
For `O=C1C=C(Nc2ccc(Cl)cc2)c2ccccc2C1=O` [Compound 19] the same measures were 0.68 µM and below 10 µM.
For the compound `O=C1C=C(Nc2cccc(O)c2)c2ccccc2C1=O` [Compound 20], the results for the IC50 in test [2] and in test [1] (setting [4]) were 0.6 µM and around 10 µM, respectively.
For `CCOc1ccc(NC2=CC(=O)C(=O)c3ccccc32)cc1` [Compound 21] the same measures were 1 µM and around 10 µM.
Consider `O=C1C=C(NCCCCC2CCCCC2)c2ccccc2C1=O` [Compound 22], for which the “FP Assay IC50” value in test [2] is “inactive”. Besides, in test [1] (setting [4]), the IC50 was above 30 µM.
Turning to `O=C1C=C(N2CCOCC2)c2ccccc2C1=O` [Compound 23], the figures for the IC50 in test [2] and in test [1] (setting [5]) were 0.63 µM and around 10 µM, respectively.
Turning to `C=CCN(CC=C)C1=CC(=O)C(=O)c2ccccc21` [Compound 24], the IC50 in test [2] was 2.19 µM; in test [1] (setting [4]), around 10 µM.
`Cc1ccc(C)c(NC2=CC(=O)C(=O)c3ccccc32)c1` [Compound 25]: the IC50 in test [2] was 1.59 µM; in test [1] (setting [5]), above 30 µM.
The like results for `Cc1cccc(C)c1NC1=CC(=O)C(=O)c2ccccc21` [Compound 26] were, in that order, 3.9 µM and above 10 µM.
In the case of `O=C1C=C(Nc2cccc(Br)c2)c2ccccc2C1=O` [Compound 27], in test [1] (setting [4]), the IC50 is above 30 µM.
For the compound `O=C1C=C(Nc2cccc(Cl)c2)c2ccccc2C1=O` [Compound 28], the IC50 in test [1] (setting [5]) was above 30 µM.
Take `Cc1ccc(NC2=CC(=O)C(=O)c3ccccc32)cc1C` [Compound 29]: the IC50 in test [2] is 1.07 µM; in test [1] (setting [4]), below 10 µM.
For `O=C1C=C(Nc2cccc(C(=O)O)c2)c2ccccc2C1=O` [Compound 30] the same measures were 1.33 µM and above 30 µM.
For `NC1=CC(=O)C(=O)c2ccccc21` [Compound 31] the same measures were 2.18 µM and 10 to 30 µM.
Consider `O=C1C=C(Nc2ccccc2)c2ccccc2C1=O` [Compound 32], for which the IC50 in test [2] is 7.4 µM; in test [1] (setting [5]), below 30 µM.
Take `O=C1C=C(Nc2cc(Cl)ccc2Cl)c2ccccc2C1=O` [Compound 33]: the IC50 was 3.06 µM in test [2] and above 30 µM in test [1] (setting [4]).
Consider `CCc1cccc(CC)c1NC1=CC(=O)C(=O)c2ccccc21` [Compound 34], for which the figures for the half-maximal inhibitory concentration (IC50) in test [2] and in test [1] (setting [5]) were 3.55 µM and above 30 µM, respectively.
For `Cc1cc(Br)ccc1NC1=CC(=O)C(=O)c2ccccc21` [Compound 35], the results for the half-inhibitory concentration (IC50) in test [2] and in test [1] (setting [4]) were 3 µM and above 30 µM, respectively.
Regarding `O=C1C=C(Nc2ccc(Br)cc2)c2ccccc2C1=O` [Compound 36], the concentration for half-maximal inhibition (IC50) was 1.4 µM in test [2] and around 30 µM in test [1] (setting [5]).
`O=C1C=C(Nc2ccc(Cl)cc2Cl)c2ccccc2C1=O` [Compound 37]: the IC50 in test [2] is 4.7 µM; in test [1] (setting [5]), around 30 µM.
Regarding `CCCCCCN(CCCCCC)C1=CC(=O)C(=O)c2ccccc21` [Compound 38], the IC50 was 2.6 µM in test [2] and around 30 µM in test [1] (setting [4]).
The like results for `NC(=O)C(=O)CC(=O)c1ccccc1NC1=CC(=O)C(=O)c2ccccc21` [Compound 39] were, in that order, 4.2 µM and above 30 µM.
The like results for `O=C1C=C(Nc2ccccc2C(=O)CC(=O)C(=O)Nc2ccc(Cl)c(Cl)c2)c2ccccc2C1=O` [Compound 40] were, in that order, 10.5 µM and above 30 µM.
For the compound `Cc1cccc(NC2=CC(=O)C(=O)c3ccccc32)c1` [Compound 41], the IC50 in test [2] was 1.06 µM; in test [1] (setting [5]) it was at least 10 µM.
`COc1cccc(NC2=CC(=O)C(=O)c3ccccc32)c1` [Compound 42]: the IC50 was 0.81 µM in test [2] and around 10 µM in test [1] (setting [4]).
On to `O=C1C=C(Nc2ccc(O)cc2)c2ccccc2C1=O` [Compound 43], for which the figures for the IC50 in test [2] and in test [1] (setting [5]) were below 0.39 µM and around 10 µM, respectively.
In the case of `CC(C)c1cccc(C(C)C)c1NC1=CC(=O)C(=O)c2ccccc21` [Compound 44], the IC50 in test [2] is 1.73 µM; in test [1] (setting [4]), above 30 µM.
For `CC(C)(C)OC(=O)N1CCN(C2=CC(=O)C(=O)c3ccccc32)CC1` [Compound 46] the same measures were 0.22 µM and 5 to 10 µM.
`CN1CCN(C2=CC(=O)C(=O)c3ccccc32)CC1` [Compound 47]: the IC50 in test [2] was 0.39 µM; in test [1] (setting [4]) it was 5 to 10 µM.
Consider `CCN(CC)C1=CC(=O)C(=O)c2ccccc21` [Compound 48], for which the half-maximal inhibitory concentration (IC50) in test [2] was 0.69 µM; in test [1] (setting [5]) it was 5 to 10 µM.
Turning to `COc1ccc(NC2=CC(=O)C(=O)c3ccccc32)c([N+](=O)[O-])c1` [Compound 52], the half-maximal inhibitory concentration (IC50) in test [2] is 0.23 µM; in test [1] (setting [4]), above 10 µM.
In the case of `Cc1ccc(NC2=CC(=O)C(=O)c3ccccc32)c(C(=O)O)c1` [Compound 68], the IC50 in test [3] was above 20 µM; in test [1] (MCF7, Table 2, values without asterisk, MCF-7 cells, 24 hours, read-out: IC50, Her2 degradation WB), above 30 µM.
